Experimental data from ChEMBL document CHEMBL1151115, “Brianthein V, a New Cytotoxic and Antiviral Diterpene Isolated from Briareum asbestinum” (J Nat Prod, 1988).
Active and inactive are the calls of the source. The calls are words filed in the database; no cut-off is given here.

Key:
[1] = test system: Murine hepatitis virus; assay: Antiviral activity against mouse coronavirus at 400 ug/ml; type: functional, organism-based
[2] = test system: Murine hepatitis virus; assay: Antiviral activity against mouse coronavirus at 10 ug; type: functional, organism-based
[3] = test system: P388; assay: Cytotoxicity against mouse P388 cells at 10 ug/ml; type: functional, cell-based
[4] = test system: Murine hepatitis virus; assay: Antiviral activity against mouse coronavirus at 80 ug/ml; type: functional, organism-based
[5] = test system: Human alphaherpesvirus 1; assay: Antiviral activity against herpes simplex virus 1 at 80 ug/ml; type: functional, organism-based
[6] = test system: P388; assay: Cytotoxicity against mouse P388 cells at 13 ug/ml; type: functional, cell-based
[7] = test system: Murine hepatitis virus; assay: Antiviral activity against mouse coronavirus at 50 ug/ml; type: functional, organism-based
[8] = test system: P388; assay: Cytotoxicity against mouse P388 cells at 0.1 ug; type: functional, cell-based
[9] = test system: Human alphaherpesvirus 1; assay: Antiviral activity against herpes simplex virus 1 at 20 ug; type: functional, organism-based

Compound: C=C1/C=C\[C@H](OC(=O)CCC)[C@]2(C)[C@H]([C@@H](C)[C@H](OC(C)=O)[C@@H]3O[C@@H]32)[C@H](OC(C)=O)[C@]2(O)[C@@H](C)C(=O)O[C@H]2[C@H]1Cl
- Activity [1]: Active

Compound: NC(=O)c1ncn([C@@H]2O[C@H](CO)[C@@H](O)[C@H]2O)n1
- Activity [2]: Active

Compound: C=C1/C=C\[C@H](OC(C)=O)[C@]2(C)[C@H]([C@@H](C)[C@H](OC(C)=O)[C@@H]3O[C@@H]32)[C@H](OC(C)=O)[C@]2(O)[C@@H](C)C(=O)O[C@H]2[C@H]1Cl
- Activity [3]: Active
- Activity [4]: Active
- Activity [5]: Active

Compound: C=C1/C=C\[C@H](OC(=O)CCC)[C@]2(C)[C@H]([C@@H](C)[C@H](OC(=O)CCC)[C@@H]3O[C@@H]32)[C@H](OC(C)=O)[C@]2(O)[C@@H](C)C(=O)O[C@H]2[C@H]1Cl
- Activity [6]: Active
- Activity [7]: Active

Compound: O=c1[nH]cc(F)c(=O)[nH]1
- Activity [8]: Active

Compound: Nc1ncnc2c1ncn2[C@@H]1O[C@H](CO)[C@@H](O)[C@@H]1O
- Activity [9]: Active
